Earlier results in patent publication EP2662403B1, “Stabilizing resin formulation of halogen-containing polymers” (Reagens S.p.A., priority 2012, dated 2013).
Read-outs that look alike come from different tables or passages of the source.

Details: indication of the basicity of the polyalkylpiperidine in the formulation, no method or source given

**Q.** With `CCCCN(c1nc(NCCCN(CCN(CCCNc2nc(N(CCCC)C3CC(C)(C)N(C)C(C)(C)C3)nc(N(CCCC)C3CC(C)(C)N(C)C(C)(C)C3)n2)c2nc(N(CCCC)C3CC(C)(C)N(C)C(C)(C)C3)nc(N(CCCC)C3CC(C)(C)N(C)C(C)(C)C3)n2)c2nc(N(CCCC)C3CC(C)(C)N(C)C(C)(C)C3)nc(N(CCCC)C3CC(C)(C)N(C)C(C)(C)C3)n2)nc(N(CCCC)C2CC(C)(C)N(C)C(C)(C)C2)n1)C1CC(C)(C)N(C)C(C)(C)C1` [Chimassorb 119] as the compound, how does the pKb (Table 11) read?
**A.** 5.5-8.5

**Q.** Which pKb (Table 11) does the source give for `CN1C(C)(C)CC(OC(=O)CCCCCCCCC(=O)OC2CC(C)(C)N(C)C(C)(C)C2)CC1(C)C` [Tinuvin 765, bis(1,2,2,6,6-pentamethyl-4-piperidyl)sebacate] here?
**A.** 5.5-8.5

**Q.** Which pKb (Table 9) does the source give for `CC1(C)CC(OC(=O)CCCCCCCCC(=O)OC2CC(C)(C)NC(C)(C)C2)CC(C)(C)N1` [Tinuvin 770, bis(2,2,6,6,-tetramethyl-4-piperidyl)sebacate] here?
**A.** 4.3-7.4

**Q.** And the pKb (Table 10)?
**A.** 4.3-7.4

**Q.** And the pKb (Table 11)?
**A.** 4.3-7.4

**Q.** And the pKb (Table 12)?
**A.** 4.3-7.4
